These results are taken from ChEMBL document CHEMBL1149548, “Synthesis, SAR, and X-ray structure of novel potent DPPIV inhibitors: oxadiazolyl ketones” (Bioorg Med Chem Lett, 2007).

The structures appear in SMILES notation. A value given as a limit tells only on which side of the number the result lay.

One data set has as its target Dipeptidyl peptidase 2 (Homo sapiens, UniProt Q9UHL4). Briefly: Inhibition of DPP2.
Data set [1] is described as follows: Cmax in rat at 5 mg/kg, po. It counts as ADME, organism-based. The arrangement: dose 5 mg/kg, route oral. To be noted: in vivo.
Data set [2] is described as follows: Cmax in monkey at 5 mg/kg, po. It counts as ADME, organism-based, Macaca mulatta. The arrangement: dose 5 mg/kg, route oral. The following applies: rhesus monkey, in vivo.
The nature of data set [3]: Plasma clearance in rat at 5 mg/kg, iv or 5 mg/kg, po. It counts as ADME, organism-based.
The nature of data set [4]: Plasma clearance in dog at 5 mg/kg, iv or 5 mg/kg, po. It counts as ADME, organism-based, Canis lupus familiaris.
A short description of data set [5]: Plasma clearance in monkey at 5 mg/kg, iv or 5 mg/kg, po. To be noted: rhesus monkey. It counts as ADME, organism-based, Macaca mulatta.
Data set [6] can be described thus: Volume of distribution at steady state in rat at 5 mg/kg, iv or 5 mg/kg, po. It counts as ADME, organism-based. To be noted: in vivo, read-out: Vdss.
Data set [7] can be described thus: Volume of distribution at steady state in dog at 5 mg/kg, iv or 5 mg/kg, po. It counts as ADME, organism-based, Canis lupus familiaris. The following applies: in vivo, read-out: Vdss.
Data set [8] can be described thus: Volume of distribution at steady state in monkey at 5 mg/kg, iv or 5 mg/kg, po. It counts as ADME, organism-based, Macaca mulatta. The following applies: rhesus monkey, in vivo, read-out: Vdss.
A short description of data set [9]: Half life in rat at 5 mg/kg, po. It counts as ADME, organism-based. Set-up: dose 5 mg/kg, route oral. To be noted: in vivo.
Data set [10] in a line: Half life in dog at 5 mg/kg, po. It counts as ADME, organism-based, Canis lupus familiaris. The arrangement: dose 5 mg/kg, route oral. The following applies: in vivo.
A short description of data set [11]: Half life in monkey at 5 mg/kg, po. It counts as ADME, organism-based, Macaca mulatta. The arrangement: dose 5 mg/kg, route oral. To be noted: rhesus monkey, in vivo.
Data set [12] in a line: Bioavailability in rat at 5 mg/kg, po. It counts as ADME, organism-based. To be noted: in vivo.
Data set [13] in a line: Bioavailability in dog at 5 mg/kg, po. To be noted: in vivo. It counts as ADME, organism-based, Canis lupus familiaris.
Data set [14] is described as follows: Bioavailability in monkey at 5 mg/kg, po. The following applies: rhesus monkey, in vivo. It counts as ADME, organism-based, Macaca mulatta.
Data set [15] deals with Rattus norvegicus. Nature of the data set: Inhibition of basal plasma DPP4 activity in Sprague-Dawley rat at 0.03 mg/kg after 1 hr. To be noted: read-out: Inhibition.
Data set [16] has as its system Rattus norvegicus. Nature of the data set: Inhibition of basal plasma DPP4 activity in Sprague-Dawley rat at 0.03 mg/kg after 24 hrs. The following applies: read-out: Inhibition.
Data set [17] relates to Rattus norvegicus. Nature of the data set: Inhibition of basal plasma DPP4 activity in Sprague-Dawley rat at 0.1 mg/kg after 1 hr. To be noted: read-out: Inhibition.
Data set [18] deals with Rattus norvegicus. Nature of the data set: Inhibition of basal plasma DPP4 activity in Sprague-Dawley rat at 0.1 mg/kg after 24 hrs. To be noted: read-out: Inhibition.
Data set [19] has as its system Rattus norvegicus. Nature of the data set: Inhibition of basal plasma DPP4 activity in Sprague-Dawley rat at 1 mg/kg after 1 hr. The following applies: read-out: Inhibition.
Data set [20] has as its system Rattus norvegicus. Briefly: Inhibition of basal plasma DPP4 activity in Sprague-Dawley rat at 1 mg/kg after 24 hrs. The following applies: read-out: Inhibition.
The subject of data set [21] is Rattus norvegicus. Nature of the data set: Inhibition of basal plasma DPP4 activity in Sprague-Dawley rat at 10 mg/kg after 1 hr. To be noted: read-out: Inhibition.
For data set [22], the system named is Rattus norvegicus. Nature of the data set: Inhibition of basal plasma DPP4 activity in Sprague-Dawley rat at 10 mg/kg after 24 hrs. To be noted: read-out: Inhibition.
For another data set, the target named is Dipeptidyl peptidase 8 (Homo sapiens, UniProt Q6V1X1). Briefly: Inhibition of DPP8.
Dipeptidyl peptidase 8, sequence (Q6V1X1 whole entry): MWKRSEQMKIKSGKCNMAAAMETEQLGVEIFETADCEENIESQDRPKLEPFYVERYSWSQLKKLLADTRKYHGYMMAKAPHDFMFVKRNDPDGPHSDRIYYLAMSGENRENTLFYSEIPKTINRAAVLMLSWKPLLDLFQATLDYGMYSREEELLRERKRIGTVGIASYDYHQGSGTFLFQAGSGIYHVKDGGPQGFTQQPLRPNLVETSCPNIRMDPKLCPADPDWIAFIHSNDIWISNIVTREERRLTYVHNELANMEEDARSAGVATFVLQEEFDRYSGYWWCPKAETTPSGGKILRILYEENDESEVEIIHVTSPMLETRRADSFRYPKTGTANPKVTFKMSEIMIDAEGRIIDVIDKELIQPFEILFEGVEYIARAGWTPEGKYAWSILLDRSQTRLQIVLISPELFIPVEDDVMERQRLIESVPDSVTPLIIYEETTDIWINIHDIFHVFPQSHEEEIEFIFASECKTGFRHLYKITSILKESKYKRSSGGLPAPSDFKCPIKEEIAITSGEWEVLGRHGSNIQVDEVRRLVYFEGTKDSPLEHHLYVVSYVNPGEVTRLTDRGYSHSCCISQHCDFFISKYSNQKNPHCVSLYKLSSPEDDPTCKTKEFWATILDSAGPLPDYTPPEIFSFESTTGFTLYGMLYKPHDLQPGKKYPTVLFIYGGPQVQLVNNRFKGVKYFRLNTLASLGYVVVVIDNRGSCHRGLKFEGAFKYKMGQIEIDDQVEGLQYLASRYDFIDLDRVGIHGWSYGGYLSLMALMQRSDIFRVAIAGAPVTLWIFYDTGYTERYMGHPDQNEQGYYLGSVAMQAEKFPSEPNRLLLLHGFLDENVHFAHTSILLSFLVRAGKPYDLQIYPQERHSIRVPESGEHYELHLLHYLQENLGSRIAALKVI

With `CC(C)(CO)NCC(=O)N1C[C@@H](F)C[C@H]1C(=O)c1nnc(C(C)(C)C)o1`, the half-inhibitory concentration (IC50) on Dipeptidyl peptidase 2 amounted to 146 µM. The Cmax was 0.03 µg/mL in data set [1] and 0.21 µg/mL in data set [2]. In addition, the clearance in data set [3] came out at 14.5 L/h/kg; in data set [4], 4.26 L/h/kg; in data set [5], 1.08 L/h/kg. For the same compound, the Vd in [6] came out at 14 L/kg; in [7], 4.87 L/kg; in data set [8] it was 2.42 L/kg. Besides, the half-life came out at 4.15 h in data set [9], 1.47 h in [10] and 4.63 h in [11]. Moreover, the bioavailability came to 39% in data set [12], 87% in data set [13] and 35% in data set [14]. The inhibition in vivo at 0.03 mg/kg came to 66% in the data set on Rattus norvegicus [15] and 76% in the data set with Rattus norvegicus [16]. The inhibition in vivo at 0.1 mg/kg in the data set on Rattus norvegicus [17] and in the data set on Rattus norvegicus [18] was 82% throughout. Also, the inhibition in vivo at 1 mg/kg was 46% in the data set on Rattus norvegicus [19] and 50% in the data set with Rattus norvegicus [20]. Besides, the inhibition in vivo at 10 mg/kg in the data set on Rattus norvegicus [21] worked out at 68%; in the data set with Rattus norvegicus [22], 74%.
For `Cc1cc(C)c(-c2nnc(C(=O)[C@@H]3CCCN3C(=O)CNC(C)(C)C)o2)c(C)c1`, the IC50 on Dipeptidyl peptidase 2 and at Dipeptidyl peptidase 8 was under 0.39 µM each time.
`CC(C)(C)NCC(=O)N1CCC[C@H]1C(=O)c1nnc(C2(C)CCCCC2)o1`: the results for the 50% inhibitory concentration (IC50) against Dipeptidyl peptidase 2 and on Dipeptidyl peptidase 8 were 8.66 µM and under 0.39 µM, respectively.
For the compound `CC(C)(C)NCC(=O)N1CCC[C@H]1C(=O)c1noc(C2(C)CCCCC2)n1`, the IC50 on Dipeptidyl peptidase 2 and against Dipeptidyl peptidase 8 was under 0.39 µM throughout.
`CC(C)(C)NCC(=O)N1C[C@@H](F)C[C@H]1C(=O)c1nnc(C2CCCCC2)o1`: the half-inhibitory concentration (IC50) on Dipeptidyl peptidase 2 and against Dipeptidyl peptidase 8 was under 0.39 µM throughout.
The compound `CC(C)(C)NCC(=O)N1CCC[C@H]1C(=O)c1nnc(C(C)(C)C)o1` registered an IC50 on Dipeptidyl peptidase 2 of over 10 µM.
For the compound `CCC(C)(C)c1nnc(C(=O)[C@@H]2C[C@H](F)CN2C(=O)CNC(C)(C)C)o1`, the IC50 is 97.2 µM against Dipeptidyl peptidase 2 and under 0.39 µM against Dipeptidyl peptidase 8.
In the same order, the values of `CC(C)(C)NCC(=O)N1CCC[C@H]1C(=O)c1noc(-c2ccc(F)cc2)n1` are under 0.39 µM and under 0.39 µM.
